Results taken from patent US20260022142A1, “MACROCYCLIC IMMUNOMODULATORS” (Bristol-Myers Squibb Company, priority 2022, published 2026).
Numbered stars: 1 amine (or outer) side, 2 acyl side, 3 side chain; on linkers, the order of the positions; unused ones are H or OH. Bridge positions count the residues as written; N and C are the ends. Square brackets hold non-standard residues; d marks the D form. Peptide text beside a SMILES is read from it. * marks the point of attachment. Phe(3-CF3) = N[C@@H](Cc1cccc(C(F)(F)F)c1)C(=O)O; Ala(morpholin-4-yl) = N[C@@H](CN1CCOCC1)C(=O)O; Phe(4-COOH) = N[C@@H](Cc1ccc(C(=O)O)cc1)C(=O)O; Bip = N[C@@H](Cc1ccc(-c2ccccc2)cc1)C(=O)O; NH(CH2)14COOH = O=C(O)CCCCCCCCCCCCCCN*; Phe(3-Me) = Cc1cccc(C[C@H](N)C(=O)O)c1; X5 = CC(C)(CCN)[C@H](N[*:1])C(=O)[*:2]; NH(CH2)12COOH = O=C(O)CCCCCCCCCCCCN*; Val(3-OH) = CC(C)(O)[C@H](N)C(=O)O; X17 = O=C(C(CN1CCOCC1)N[*:1])[*:2]; hArg = N=C(N)NCCCC[C@H](N)C(=O)O; 4Pal = N[C@@H](Cc1ccncc1)C(=O)O; Cha = N[C@@H](CC1CCCCC1)C(=O)O; Cit = NC(=O)NCCC[C@H](N)C(=O)O; PEG4 = NCCOCCOCCOCCOCCC(=O)O; 12Ado = NCCCCCCCCCCCC(=O)O; Carboxymethyl = O=C(O)C*; Orn = NCCC[C@H](N)C(=O)O; Aun = NCCCCCCCCCCC(=O)O; Dab = NCC[C@H](N)C(=O)O; Abu = CC[C@H](N)C(=O)O; Dap = NC[C@H](N)C(=O)O; AEEA = NCCOCCOCC(=O)O; Ac3c = NC1(C(=O)O)CC1

target: T1, PD-1/PD-L1 interaction (PE-labeled human PD-L1-Ig binding to Jurkat cell line over-expressing human PD-1) (Homo sapiens, UniProt Q15116); experiment: Jurkat-PD-1 Cell Binding High-Content Screening Assay (CBA); type: cell-based; conditions: Jurkat cell line over-expressing human PD-1; PE-labeled PD-L1-Ig 20 nM final; read-out: Jurkat hPD1-PDL1 IC50
T1 construct: expressed in transfected cells; host or cells: Jurkat
T1 sequence (Q15116 25-288): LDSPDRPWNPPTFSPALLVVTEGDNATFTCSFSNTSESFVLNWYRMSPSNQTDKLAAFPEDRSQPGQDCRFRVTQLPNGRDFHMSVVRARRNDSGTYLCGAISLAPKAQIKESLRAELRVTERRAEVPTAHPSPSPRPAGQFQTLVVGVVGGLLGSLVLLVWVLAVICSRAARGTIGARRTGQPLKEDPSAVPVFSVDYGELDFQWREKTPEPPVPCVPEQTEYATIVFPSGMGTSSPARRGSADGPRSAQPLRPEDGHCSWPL
In short: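 First, compound is added to PD-1-expressing Jurkat cells in serum-containing DMEM and left 2 h at 37° C. Next, PE-conjugated PD-L1-Ig is introduced at 20 nM final concentration for 1 hour. Finally, cells are fixed in 4% paraformaldehyde with Hoechst 33342, washed and imaged.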

Row | SMILES | IC50 [nM]
1 | CC(C)C[C@H]1NC(=O)[C@H](CCCN)NC(=O)[C@H](Cc2ccc(C(=O)O)cc2)NC(=O)[C@H](Cc2ccc(-c3ccccc3)cc2)NC(=O)[C@H](Cc2ccc(C(=O)O)cc2)NC(=O)[C@H](Cc2cccc(C(F)(F)F)c2)NC(=O)[C@H](CC(=O)O)NC(=O)[C@H](Cc2ccc(OCC(=O)O)cc2)NC(=O)[C@H](CN2CCOCC2)NC(=O)CSC[C@@H](C(=O)N[C@@H](CCN)C(=O)NCCCCCCCCCCCCCCC(=O)O)NC(=O)[C@H](CO)NC(=O)[C@H](C(C)(C)O)NC(=O)[C@H](CC2CCCCC2)NC(=O)[C@H](CCN)NC1=O [Compound 2919] ({CH2CO}-[Ala(morpholin-4-yl)]Y(Carboxymethyl)D[Phe(3-CF3)][Phe(4-COOH)][Bip][Phe(4-COOH)][Orn][dL][Dab][Cha][Val(3-OH)]SC[Dab]-{NH(CH2)14COOH}; thioether N-14) | 372
2 | Cc1cccc(C[C@@H]2NC(=O)[C@H](CC(=O)O)NC(=O)[C@H](Cc3ccc(OCC(=O)O)cc3)NC(=O)[C@H](CCN)NC(=O)CSC[C@@H](C(=O)N[C@H](C(=O)NCCCCCCCCCCC(=O)O)C(C)(C)CCN)NC(=O)[C@H](CO)NC(=O)[C@H](C(C)(C)O)NC(=O)[C@H](CC3CCCCC3)NC(=O)[C@H](CCN)NC(=O)[C@@H](CC(C)C)NC(=O)[C@H](CCCN)NC(=O)[C@H](Cc3ccc(OCC(=O)O)cc3)NC(=O)[C@H](Cc3ccc(-c4ccccc4)cc3)NC(=O)[C@H](Cc3ccc(OCC(=O)O)cc3)NC2=O)c1 [Compound 2261] ({CH2CO}-[Dab]Y(Carboxymethyl)D[Phe(3-Me)]Y(Carboxymethyl)[Bip]Y(Carboxymethyl)[Orn][dL][Dab][Cha][Val(3-OH)]SC[X5][Aun]-OH; thioether N-14) | 207
3 | Cc1cccc(C[C@@H]2NC(=O)[C@H](CC(=O)O)NC(=O)[C@H](Cc3ccncc3)NC(=O)[C@H](Cc3ccc(OCC(=O)O)cc3)NC(=O)CSC[C@@H](C(=O)N[C@@H](CCN)C(=O)NCCCCCCCCCCC(=O)O)NC(=O)[C@H]([C@@H](C)O)NC(=O)[C@H](C(C)C)NC(=O)[C@H](CC3CCCCC3)NC(=O)[C@H](CCN)NC(=O)[C@@H](CC(C)C)NC(=O)[C@H](CCCN)NC(=O)[C@H](Cc3ccc(O)cc3)NC(=O)[C@H](Cc3ccc(-c4ccccc4)cc3)NC(=O)[C@H](C(C)C)NC2=O)c1 [Compound 2733] ({CH2CO}-Y(Carboxymethyl)[4Pal]D[Phe(3-Me)]V[Bip]Y[Orn][dL][Dab][Cha]VTC[Dab][Aun]-OH; thioether N-14) | 42.2
4 | Cc1cccc(C[C@@H]2NC(=O)[C@H](CC(=O)O)NC(=O)[C@H](Cc3ccc(OCC(=O)O)cc3)NC(=O)[C@H](CCCNC(=N)N)NC(=O)CSC[C@@H](C(=O)N[C@@H](CCN)C(=O)NCCCCCCCCCCC(=O)O)NC(=O)[C@H]([C@@H](C)O)NC(=O)[C@H](C(C)C)NC(=O)[C@H](CC3CCCCC3)NC(=O)[C@H](CCN)NC(=O)[C@@H](CC(C)C)NC(=O)[C@H](CCCN)NC(=O)[C@H](Cc3ccc(OCC(=O)O)cc3)NC(=O)[C@H](Cc3ccc(-c4ccccc4)cc3)NC(=O)[C@H](Cc3ccc(OCC(=O)O)cc3)NC2=O)c1 [Compound 2157] ({CH2CO}-RY(Carboxymethyl)D[Phe(3-Me)]Y(Carboxymethyl)[Bip]Y(Carboxymethyl)[Orn][dL][Dab][Cha]VTC[Dab][Aun]-OH; thioether N-14) | 97.8
5 | CC(C)C[C@H]1NC(=O)[C@H](CCCN)NC(=O)[C@H](C(C)C)NC(=O)[C@H](Cc2ccc(-c3ccccc3)cc2)NC(=O)[C@H](C(C)C)NC(=O)[C@H](Cc2c[nH]c3ccccc23)NC(=O)[C@H](CC(=O)O)NC(=O)[C@H](CCCCNC(=N)N)NC(=O)[C@H](Cc2ccc(OCC(=O)O)cc2)NC(=O)CSC[C@@H](C(=O)NCCOCCOCC(=O)N[C@@H](CCCCN)C(=O)NCCCCCCCCCCCC(=O)O)NC(=O)[C@H](CCN)NC(=O)[C@H](C(C)C)NC(=O)[C@H](CC2CCCCC2)NC(=O)[C@H](Cc2cnc[nH]2)NC1=O [Compound 3158] ({CH2CO}-Y(Carboxymethyl)[hArg]DWV[Bip]V[Orn][dL]H[Cha]V[Dab]C[AEEA]K[12Ado]-OH; thioether N-14) | 107
6 | CC[C@@H]1NC(=O)CSC[C@@H](C(=O)N[C@@H](CCN)C(=O)NCCOCCOCCOCCOCCC(=O)NCCCCCCCCCCCCCCC(=O)O)NC(=O)[C@H](Cc2c[nH]cn2)NC(=O)[C@H](C(C)(C)O)NC(=O)[C@H](CC2CCCCC2)NC(=O)[C@H](CCN)NC(=O)[C@@H](CC(C)C)NC(=O)[C@H](CCCN)NC(=O)[C@H](Cc2ccc(C(=O)O)cc2)NC(=O)[C@H](Cc2ccc(-c3ccccc3)cc2)NC(=O)[C@H](Cc2ccc(C(=O)O)cc2)NC(=O)[C@H](Cc2cccc(C(F)(F)F)c2)NC(=O)[C@H](CC(=O)O)NC(=O)[C@H](Cc2ccc(OCC(=O)O)cc2)NC1=O [Compound 2927] ({CH2CO}-[Abu]Y(Carboxymethyl)D[Phe(3-CF3)][Phe(4-COOH)][Bip][Phe(4-COOH)][Orn][dL][Dab][Cha][Val(3-OH)]HC[Dab][PEG4]-{NH(CH2)14COOH}; thioether N-14) | 244

These reach a lower IC50. Values come first.

Row | IC50 [nM] | SMILES
7 | 23 | Cc1cccc(C[C@@H]2NC(=O)[C@H](CC(=O)O)NC(=O)[C@H](Cc3ccc(OCC(=O)O)cc3)NC(=O)[C@H](Cc3ccccc3)NC(=O)CSC[C@@H](C(=O)N[C@@H](CCN)C(=O)NCCCCCCCCCCC(=O)O)NC(=O)[C@H](CO)NC(=O)[C@H](C(C)(C)O)NC(=O)[C@H](CC3CCCCC3)NC(=O)[C@H](CCN)NC(=O)[C@@H](CC(C)C)NC(=O)[C@H](CCCN)NC(=O)[C@H](Cc3ccc(OCC(=O)O)cc3)NC(=O)[C@H](Cc3ccc(-c4ccccc4)cc3)NC(=O)[C@H](Cc3ccc(OCC(=O)O)cc3)NC2=O)c1 [Compound 3628] ({CH2CO}-FY(Carboxymethyl)D[Phe(3-Me)]Y(Carboxymethyl)[Bip]Y(Carboxymethyl)[Orn][dL][Dab][Cha][Val(3-OH)]SC[Dab][Aun]-OH; thioether N-14)
8 | 9.4 | Cc1cccc(C[C@@H]2NC(=O)[C@H](CC(=O)O)NC(=O)[C@H](Cc3ccc(OCC(=O)O)cc3)NC(=O)C(CN3CCOCC3)NC(=O)CSC[C@@H](C(=O)N[C@@H](CCN)C(=O)NCCCCCCCCCCCCC(=O)O)NC(=O)[C@H](CO)NC(=O)[C@H](C(C)(C)O)NC(=O)[C@H](CC3CCCCC3)NC(=O)[C@H](CCN)NC(=O)[C@@H](CC(C)C)NC(=O)[C@H](CCCN)NC(=O)[C@H](Cc3ccc(OCC(=O)O)cc3)NC(=O)[C@H](Cc3ccc(-c4ccccc4)cc3)NC(=O)[C@H](Cc3ccc(OCC(=O)O)cc3)NC2=O)c1 (stereo partly drawn) [Compound 2260] ({CH2CO}-[X17]Y(Carboxymethyl)D[Phe(3-Me)]Y(Carboxymethyl)[Bip]Y(Carboxymethyl)[Orn][dL][Dab][Cha][Val(3-OH)]SC[Dab]-{NH(CH2)12COOH}; thioether N-14)
9 | 8.2 | Cc1cccc(C[C@@H]2NC(=O)[C@H](CC(=O)O)NC(=O)[C@H](Cc3ccc(OCC(=O)O)cc3)NC(=O)[C@H](CN)NC(=O)CSC[C@@H](C(=O)N[C@@H](CCN)C(=O)NCCOCCOCC(=O)NCCCCCCCCCCC(=O)O)NC(=O)[C@H](CCCN)NC(=O)[C@H](C(C)C)NC(=O)[C@H](CC3CCCCC3)NC(=O)[C@H](CCN)NC(=O)[C@@H](CC(C)C)NC(=O)[C@H](CCCN)NC(=O)[C@H](Cc3ccccc3)NC(=O)[C@H](Cc3ccc(-c4ccccc4)cc3)NC(=O)[C@H](Cc3ccc(O)cc3)NC2=O)c1 [Compound 2041] ({CH2CO}-[Dap]Y(Carboxymethyl)D[Phe(3-Me)]Y[Bip]F[Orn][dL][Dab][Cha]V[Orn]C[Dab][AEEA][Aun]-OH; thioether N-14)
10 | 39.5 | Cc1cccc(C[C@@H]2NC(=O)[C@H](CC(=O)O)NC(=O)[C@H](Cc3ccc(OCC(=O)O)cc3)NC(=O)[C@H](CCCNC(N)=O)NC(=O)CSC[C@@H](C(=O)N[C@@H](CCCN)C(=O)NCCCCCCCCCCC(=O)O)NC(=O)[C@H](CO)NC(=O)[C@H](C(C)C)NC(=O)[C@H](CC3CCCCC3)NC(=O)[C@H](CCN)NC(=O)[C@@H](CC(C)C)NC(=O)[C@H](CCCN)NC(=O)[C@H](C(C)C)NC(=O)[C@H](Cc3ccc(-c4ccccc4)cc3)NC(=O)[C@H](C(C)C)NC2=O)c1 [Compound 3049] ({CH2CO}-[Cit]Y(Carboxymethyl)D[Phe(3-Me)]V[Bip]V[Orn][dL][Dab][Cha]VSC[Orn][Aun]-OH; thioether N-14)
11 | 9.1 | Cc1cccc(C[C@@H]2NC(=O)[C@H](CC(=O)O)NC(=O)[C@H](Cc3ccc(OCC(=O)O)cc3)NC(=O)[C@H](CCCNC(=N)N)NC(=O)CSC[C@@H](C(=O)NC3(C(=O)NCCCCCCCCCCC(=O)O)CC3)NC(=O)[C@H](CCC(N)=O)NC(=O)[C@H](C(C)C)NC(=O)[C@H](CC3CCCCC3)NC(=O)[C@H](CCN)NC(=O)[C@@H](CC(C)C)NC(=O)[C@H](CCCN)NC(=O)[C@H](Cc3ccc(OCC(=O)O)cc3)NC(=O)[C@H](Cc3ccc(-c4ccccc4)cc3)NC(=O)[C@H](Cc3ccc(OCC(=O)O)cc3)NC2=O)c1 [Compound 2137] ({CH2CO}-RY(Carboxymethyl)D[Phe(3-Me)]Y(Carboxymethyl)[Bip]Y(Carboxymethyl)[Orn][dL][Dab][Cha]VQC[Ac3c][Aun]-OH; thioether N-14)
12 | 11.6 | Cc1cccc(C[C@@H]2NC(=O)[C@H](CC(=O)O)NC(=O)[C@H](Cc3ccc(OCC(=O)O)cc3)NC(=O)[C@H](CCCNC(=N)N)NC(=O)CSC[C@@H](C(=O)N[C@@H](CCN)C(=O)NCCCCCCCCCCC(=O)O)NC(=O)[C@H](CCCNC(N)=O)NC(=O)[C@H](C(C)C)NC(=O)[C@H](CC3CCCCC3)NC(=O)[C@H](CCN)NC(=O)[C@@H](CC(C)C)NC(=O)[C@H](CCC(N)=O)NC(=O)[C@H](Cc3ccc(OCC(=O)O)cc3)NC(=O)[C@H](Cc3ccc(-c4ccccc4)cc3)NC(=O)[C@H](CC(C)C)NC2=O)c1 [Compound 3372] ({CH2CO}-RY(Carboxymethyl)D[Phe(3-Me)]L[Bip]Y(Carboxymethyl)Q[dL][Dab][Cha]V[Cit]C[Dab][Aun]-OH; thioether N-14)
